Experimental findings from patent US10448639B2, “Fungicidal pyrazoles” (FMC CORPORATION, priority 2009, dated 2019) are described below.

SMILES strings stand for the structures.

The test system of one assay is Alternaria solani. The assay can be described thus: Test C: tomato early blight, preventive spray on tomato seedlings, visual disease rating. As to conditions: tomato early blight; 100 = 100% disease control, 0 = no control relative to controls.
Take `Cc1nn(C)c(Oc2ncc(C(F)(F)F)cc2F)c1-c1ccc(F)cc1Br` [compound 260]: the “Test C rating (% disease control)” value was 0%.
The same measure, in the same setting: with `Cc1nn(C)c(Oc2ncc(C(F)(F)F)cc2Cl)c1-c1ccc(F)cc1Br` [compound 261] the figure was 0%.
The same measure, in the same setting: the figure for `Cc1nn(C)c(Nc2ccc(F)cc2F)c1-c1ccccc1F` [compound 181] is 44%.
As to `Cc1nn(C)c(Nc2ncc(Cl)cc2Cl)c1-c1c(F)cccc1Cl` [compound 252], the “Test C rating (% disease control)” value turned out to be 97%.
For the compound `Cc1nn(C)c(Oc2c(F)cc(C#N)cc2F)c1-c1cc(Cl)ccc1Cl` [compound 275], the “Test C rating (% disease control)” value was 46%.
The same measure, in the same setting: with `Cc1nn(C)c(Nc2c(F)cc(C#N)cc2F)c1-c1c(F)cccc1Cl` [compound 192] the figure was 100%; with `COc1ccc(-c2c(C)nn(C)c2Nc2c(F)cccc2F)c(Cl)c1` [compound 161], 100%.
In the case of `Cc1nn(C)c(Oc2ccc(C#N)c(C#N)c2)c1-c1c(F)cc(F)cc1F` [compound 169], the “Test C rating (% disease control)” value was 0%.

Still in this assay, the particulars now being: tomato early blight; 100 = 100% disease control, 0 = no disease control relative to controls.
Turning to `Cc1nn(C)c(Nc2c(Cl)cc(F)cc2Cl)c1-c1c(Cl)cccc1Cl` [compound 341], the “Test C disease control rating” value was determined as 0%.

The test system of the next assay is Puccinia recondita f. sp. tritici. The assay can be described thus: Test H: wheat leaf rust, curative spray on inoculated wheat seedlings, visual disease rating. The conditions noted are these: wheat leaf rust, curative; 100 = 100% disease control, 0 = no control relative to controls.
Turning to `Cc1nn(C)c(Oc2ncc(C(F)(F)F)cc2F)c1-c1ccc(F)cc1Br` [compound 260], the “Test H rating (% disease control)” value is given as 0%.
On the same count and under the same terms, with `Cc1nn(C)c(Oc2ncc(C(F)(F)F)cc2Cl)c1-c1ccc(F)cc1Br` [compound 261] the figure was 0%; with `Cc1nn(C)c(Nc2ccc(F)cc2F)c1-c1ccccc1F` [compound 181], 0%.
With `Cc1nn(C)c(Nc2ncc(Cl)cc2Cl)c1-c1c(F)cccc1Cl` [compound 252], the “Test H rating (% disease control)” value stood at 0%.
Same read-out and setting: with `Cc1nn(C)c(Oc2c(F)cc(C#N)cc2F)c1-c1cc(Cl)ccc1Cl` [compound 275] the figure was 8%; with `Cc1nn(C)c(Nc2c(F)cc(C#N)cc2F)c1-c1c(F)cccc1Cl` [compound 192], 0%; with `COc1ccc(-c2c(C)nn(C)c2Nc2c(F)cccc2F)c(Cl)c1` [compound 161], 95%.
Same read-out and setting: the figure for `Cc1nn(C)c(Oc2ccc(C#N)c(C#N)c2)c1-c1c(F)cc(F)cc1F` [compound 169] is 0%.

Still in this assay, the particulars now being: wheat leaf rust, sprayed after inoculation; 100 = 100% disease control, 0 = no disease control relative to controls.
In the case of `Cc1nn(C)c(Nc2c(Cl)cc(F)cc2Cl)c1-c1c(Cl)cccc1Cl` [compound 341], the “Test H disease control rating” value is listed as 0%.

In another assay the test system is Erysiphe graminis f sp. tritici. Briefly: Test J: wheat powdery mildew, preventive spray on wheat seedlings, visual disease rating. The conditions noted are these: wheat powdery mildew, sprayed the day before inoculation; 100 = 100% disease control, 0 = no disease control relative to controls.
Consider `Cc1nn(C)c(Nc2c(Cl)cc(F)cc2Cl)c1-c1c(Cl)cccc1Cl` [compound 341], for which the “Test J disease control rating” value was 93%.

The same assay, now with this note: wheat powdery mildew; 100 = 100% disease control, 0 = no control relative to controls.
Turning to `Cc1nn(C)c(Oc2ncc(C(F)(F)F)cc2F)c1-c1ccc(F)cc1Br` [compound 260], the “Test J rating (% disease control)” value came to 0%.
On to `Cc1nn(C)c(Oc2ncc(C(F)(F)F)cc2Cl)c1-c1ccc(F)cc1Br` [compound 261], for which the “Test J rating (% disease control)” value came to 47%.
On the same count and under the same terms, the figure for `Cc1nn(C)c(Nc2ccc(F)cc2F)c1-c1ccccc1F` [compound 181] is 98%.
The same measure, in the same setting: with `Cc1nn(C)c(Nc2ncc(Cl)cc2Cl)c1-c1c(F)cccc1Cl` [compound 252] the figure was 100%; with `Cc1nn(C)c(Oc2c(F)cc(C#N)cc2F)c1-c1cc(Cl)ccc1Cl` [compound 275], 99%.
The same measure, in the same setting: the figure for `Cc1nn(C)c(Nc2c(F)cc(C#N)cc2F)c1-c1c(F)cccc1Cl` [compound 192] is 99%; for `COc1ccc(-c2c(C)nn(C)c2Nc2c(F)cccc2F)c(Cl)c1` [compound 161] it is 98%.
For the compound `Cc1nn(C)c(Oc2ccc(C#N)c(C#N)c2)c1-c1c(F)cc(F)cc1F` [compound 169], the “Test J rating (% disease control)” value came to 0%.

Another assay concerns Botrytis cinerea. Briefly: Test B: tomato Botrytis, preventive spray on tomato seedlings, visual disease rating. As to conditions: tomato Botrytis; 100 = 100% disease control, 0 = no control relative to controls.
In the case of `Cc1nn(C)c(Oc2ncc(C(F)(F)F)cc2F)c1-c1ccc(F)cc1Br` [compound 260], the “Test B rating (% disease control)” value was 0%.
Still for that read-out and setting: with `Cc1nn(C)c(Oc2ncc(C(F)(F)F)cc2Cl)c1-c1ccc(F)cc1Br` [compound 261] the figure was 0%; with `Cc1nn(C)c(Nc2ccc(F)cc2F)c1-c1ccccc1F` [compound 181], 94%.
On the same count and under the same terms, with `Cc1nn(C)c(Nc2ncc(Cl)cc2Cl)c1-c1c(F)cccc1Cl` [compound 252] the figure was 100%; with `Cc1nn(C)c(Oc2c(F)cc(C#N)cc2F)c1-c1cc(Cl)ccc1Cl` [compound 275], 97%; with `Cc1nn(C)c(Nc2c(F)cc(C#N)cc2F)c1-c1c(F)cccc1Cl` [compound 192], 97%.
The same measure, in the same setting: the figure for `COc1ccc(-c2c(C)nn(C)c2Nc2c(F)cccc2F)c(Cl)c1` [compound 161] is 98%.
`Cc1nn(C)c(Oc2ccc(C#N)c(C#N)c2)c1-c1c(F)cc(F)cc1F` [compound 169]: the “Test B rating (% disease control)” value stood at 24%.

The assay is the same for the next values; noted with them: tomato Botrytis; 100 = 100% disease control, 0 = no disease control relative to controls.
On to `Cc1nn(C)c(Nc2c(Cl)cc(F)cc2Cl)c1-c1c(Cl)cccc1Cl` [compound 341], for which the “Test B disease control rating” value is reported as 99%.

The next assay relates to Septoria tritici. Briefly: Test G: wheat leaf blotch, preventive spray on wheat seedlings, visual disease rating. The conditions noted are these: wheat leaf blotch, sprayed the day before inoculation; 100 = 100% disease control, 0 = no disease control relative to controls.
On to `Cc1nn(C)c(Nc2c(Cl)cc(F)cc2Cl)c1-c1c(Cl)cccc1Cl` [compound 341], for which the “Test G disease control rating” value stood at 99%.

Still in this assay, the particulars now being: wheat leaf blotch; 100 = 100% disease control, 0 = no control relative to controls.
Turning to `Cc1nn(C)c(Oc2ncc(C(F)(F)F)cc2F)c1-c1ccc(F)cc1Br` [compound 260], the “Test G rating (% disease control)” value was 0%.
Still for that read-out and setting: the figure for `Cc1nn(C)c(Oc2ncc(C(F)(F)F)cc2Cl)c1-c1ccc(F)cc1Br` [compound 261] is 0%.
Consider `Cc1nn(C)c(Nc2ccc(F)cc2F)c1-c1ccccc1F` [compound 181], for which the “Test G rating (% disease control)” value came to 100%.
Take `Cc1nn(C)c(Nc2ncc(Cl)cc2Cl)c1-c1c(F)cccc1Cl` [compound 252]: the “Test G rating (% disease control)” value came to 100%.
The same measure, in the same setting: with `Cc1nn(C)c(Oc2c(F)cc(C#N)cc2F)c1-c1cc(Cl)ccc1Cl` [compound 275] the figure was 99%; with `Cc1nn(C)c(Nc2c(F)cc(C#N)cc2F)c1-c1c(F)cccc1Cl` [compound 192], 100%; with `COc1ccc(-c2c(C)nn(C)c2Nc2c(F)cccc2F)c(Cl)c1` [compound 161], 100%.
On the same count and under the same terms, the figure for `Cc1nn(C)c(Oc2ccc(C#N)c(C#N)c2)c1-c1c(F)cc(F)cc1F` [compound 169] is 85%.

Another assay deals with Puccinia recondita f. sp. tritici. The assay can be described thus: Test I: wheat leaf rust, preventive spray on wheat seedlings, visual disease rating. As to conditions: wheat leaf rust, preventive; 100 = 100% disease control, 0 = no control relative to controls.
Turning to `Cc1nn(C)c(Oc2ncc(C(F)(F)F)cc2F)c1-c1ccc(F)cc1Br` [compound 260], the “Test I rating (% disease control)” value stood at 0%.
On the same count and under the same terms, with `Cc1nn(C)c(Oc2ncc(C(F)(F)F)cc2Cl)c1-c1ccc(F)cc1Br` [compound 261] the figure was 0%; with `Cc1nn(C)c(Nc2ccc(F)cc2F)c1-c1ccccc1F` [compound 181], 60%; with `Cc1nn(C)c(Nc2ncc(Cl)cc2Cl)c1-c1c(F)cccc1Cl` [compound 252], 100%.
The same measure, in the same setting: the figure for `Cc1nn(C)c(Oc2c(F)cc(C#N)cc2F)c1-c1cc(Cl)ccc1Cl` [compound 275] is 97%; for `Cc1nn(C)c(Nc2c(F)cc(C#N)cc2F)c1-c1c(F)cccc1Cl` [compound 192] it is 99%.
The same measure, in the same setting: the figure for `COc1ccc(-c2c(C)nn(C)c2Nc2c(F)cccc2F)c(Cl)c1` [compound 161] is 100%; for `Cc1nn(C)c(Oc2ccc(C#N)c(C#N)c2)c1-c1c(F)cc(F)cc1F` [compound 169] it is 0%.

Staying with this assay, now noted: wheat leaf rust, sprayed the day before inoculation; 100 = 100% disease control, 0 = no disease control relative to controls.
Consider `Cc1nn(C)c(Nc2c(Cl)cc(F)cc2Cl)c1-c1c(Cl)cccc1Cl` [compound 341], for which the “Test I disease control rating” value is 99%.

The next assay concerns Septoria nodorum. Briefly: Test F: Septoria glume blotch, preventive spray on wheat seedlings, visual disease rating. The conditions noted are these: Septoria glume blotch on wheat; 100 = 100% disease control, 0 = no disease control relative to controls.
`Cc1nn(C)c(Nc2c(Cl)cc(F)cc2Cl)c1-c1c(Cl)cccc1Cl` [compound 341]: the “Test F disease control rating” value came out at 0%.

Staying with this assay, now noted: Septoria glume blotch; 100 = 100% disease control, 0 = no control relative to controls.
For `Cc1nn(C)c(Oc2ncc(C(F)(F)F)cc2F)c1-c1ccc(F)cc1Br` [compound 260], the “Test F rating (% disease control)” value is reported as 0%.
The same measure, in the same setting: the figure for `Cc1nn(C)c(Oc2ncc(C(F)(F)F)cc2Cl)c1-c1ccc(F)cc1Br` [compound 261] is 0%; for `Cc1nn(C)c(Nc2ccc(F)cc2F)c1-c1ccccc1F` [compound 181] it is 0%; for `Cc1nn(C)c(Nc2ncc(Cl)cc2Cl)c1-c1c(F)cccc1Cl` [compound 252] it is 0%.
Still for that read-out and setting: with `Cc1nn(C)c(Oc2c(F)cc(C#N)cc2F)c1-c1cc(Cl)ccc1Cl` [compound 275] the figure was 0%; with `Cc1nn(C)c(Nc2c(F)cc(C#N)cc2F)c1-c1c(F)cccc1Cl` [compound 192], 73%; with `COc1ccc(-c2c(C)nn(C)c2Nc2c(F)cccc2F)c(Cl)c1` [compound 161], 0%.
On the same count and under the same terms, the figure for `Cc1nn(C)c(Oc2ccc(C#N)c(C#N)c2)c1-c1c(F)cc(F)cc1F` [compound 169] is 0%.
